How the values were obtained:
[1] = Flow properties of the crystals; type: physicochemical; details: for solid dosage forms
[2] = tested on: tracheal allogenic transplants; details: 50 mg/kg combined with CsA 1 mg/kg s.c.
Source text: In contrast to patients without OB, those with OB often show an elevated PDGF concentration in bronchoalveolar lavage fluids.

[3] = tested on: denuded left common carotid artery; test: Rat carotid artery denudation, cell counts and BrdU labelling; type: in vivo, male Wistar rats
[4] = tested on: denuded thoracic aorta; test: Rat thoracic aorta denudation, cell counts; type: in vivo, male Wistar rats; details: rats, 50 mg/kg i.p. per day
[5] = tested on: PDGF receptor; test: PDGF-stimulated receptor tyrosine kinase activity in PDGF receptor immune complexes of BALB/c 3T3 cells; type: biochemical
Description: The inhibition of PDGF-stimulated receptor tyrosine kinase activity in vitro is measured in PDGF receptor immune complexes of BALB/c 3T3 cells, as described by E. Andrejauskas-Buchdunger and U. Regenass in Cancer Research 52, 5353-5358 (1992).

[6] = tested on: angiogenic effect of growth factors (VEGF, PDGF, bFGF); test: Subcutaneous agar chamber angiogenesis model with growth factor; type: in vivo, mice (C57 BL/6); details: mice, oral dose of 50 mg/kg once daily, chambers removed after 5 days
Description: Dosing is started one day before implantation of the chambers. The chambers are removed after 5 days. The angiogenic efficacy is quantified by measuring both the vascularised tissue which has grown around the implant and the blood content of this tissue (external blood). The blood is determined by measuring the haemoglobin.

| Compound | Flow properties [1] | Effect of combination with CsA [2] | Absolute number of BrdU-labelled cells in the intima, media, and adventitia ([3]; first two labelling periods (0-72 and 72-96 h)) | Number of BrdU-labelled cells in all compartments ([3]; labelling after 93-96 h) | Cell count for smooth-muscle cells in the carotid ([3]; rats, 50 mg/kg i.p. per day, 4 days after denudation) | Cell count in the adventitia and the media ([3]; rats, 50 mg/kg i.p. per day, carotid denudation) | Number of smooth-muscle cells in aorta-denuded animals [4] | PDGF-dependent acellular receptor phosphorylation [5] | Angiogenic effect of growth factors (VEGF, PDFG, bFGF) [6] |
| --- | --- | --- | --- | --- | --- | --- | --- | --- | --- |
| CS(=O)(=O)O.Cc1ccc(NC(=O)c2ccc(CN3CCN(C)CC3)cc2)cc1Nc1nccc(-c2cccnc2)n1 [β-crystal form] | substantially more favourable than those of the α-crystal form | synergism | slight decrease | decrease | significant decrease | significant reduction | Decreases |  |  |
| CS(=O)(=O)O.Cc1ccc(NC(=O)c2ccc(CN3CCN(C)CC3)cc2)cc1Nc1nccc(-c2cccnc2)n1 [α-crystal form] | unfavourable |  |  |  |  |  |  |  |  |
| Cc1ccc(NC(=O)c2ccc(CN3CCN(C)CC3)cc2)cc1Nc1nccc(-c2cccnc2)n1 [compound of formula I] |  |  |  |  |  |  |  | inhibits | inhibits |
